Consider one compound from patent publication US12533350B2, “Use of melanocortin-1 receptor agonist” (TANABE PHARMA CORPORATION, priority 2022, dated 2026).

Test [1] relates to pre-established BLM-induced skin fibrosis.
The test system of test [2] is dermal fibroblasts from healthy donors. The experiment in a line: TGF-β-induced human fibroblast activation, healthy donors. The format is cell-based. As to conditions: TGF-β 10 ng/mL, 24 hours. The source says:
Full-thickness skin biopsies were obtained from clinically involved skin of patients affected by dcSSc, who were recruited from the Systemic sclerosis clinic within the Leeds Institute of Rheumatic and Musculoskeletal Medicine (UK). Control skin samples were from healthy donors. All patients with dcSSc and healthy donors provided written informed consent through the stratification for risk of progression in systemic sclerosis (STRIKE SSC), which had been approved by the North-East Research Ethic committee. Patients with SSc fulfilled the 2013 ACR/EULAR classification criteria for SSc and were classified as having dcSSc according to the LeRoy and Medsger criteria.
Dermal fibroblasts were isolated from the skin biopsy samples of healthy donors and SSc patients. The skin biopsy samples were minced with a scalpel, placed in plastic culture dishes and covered with Dulbecco's Modified Eagle Medium (DMEM) with 4.5 g/L glucose (Thermo Fisher Scientific) supplemented with 20% fetal calf serum (FCS, Thermo Fisher Scientific), 1% penicillin and streptomycin (Merck), and 1 μg/ml of amphotericin (Thermo Fisher Scientific) and cultured at 37° C. in a humidified atmosphere of 5% CO2. Additional growth medium was added after 3 days with no amphotericin. After 7 days, culture medium was replaced with medium containing 10% FCS and subsequently replenished every 2 to 3 days. When a visible outgrowth of cells was obtained, the fibroblasts were passaged. Briefly, cells were incubated with PBS containing 0.1% EDTA for 5 min, and then detached with trypsin-EDTA solution (Merck), and cultured until 70-80% confluent in DMEM (1 g/L glucose) supplemented with 10% FCS and 1% penicillin and streptomycin. After a subsequent passage, primary cells were retrovirally immortalized using human telomerase reverse transcriptase. […]
Total RNA was extracted using the Zymo quick RNA mini prep kit according to manufacturer's instructions (Zymo Research Corporation). […] Quantitative RT-PCR was performed in triplicates using SYBR Green RT-PCR Mastermix Kit (Thermo Fisher Scientific) and the ABI PRISM 7500 Fast Real Time PCR System (Applied Biosystems). […]
FIGS. 5(A)-5(B) show the effect of Compound A on human fibroblast activation. Dermal fibroblasts from a healthy individual or an SSc patient were grown to confluence, and placed under starvation for 24 hours in a medium supplemented with 1% fetal bovine serum (A: mRNA expression of ACTA2 and COL1A1 in dermal fibroblasts of healthy individuals was measured by real-time PCR, and normalized for the GAPDH expression level. B: mRNA expression of ACTA2 and COL1A1 in dermal fibroblasts of SSc patients was measured for by real-time PCR, and normalized for the GAPDH expression level). Each bar represents the mean±SEM of the measured values from three wells. […]

In test [3] the test system is bleomycin (BLM)-induced systemic sclerosis (SSc) model: skin fibrosis and lung inflammation. The procedure: The back of mice was shaved, and the middle of the back was marked with oil-based red ink. Phosphate-buffered saline (PBS) or BLM (Nippon Kayaku) (0.15 mg/0.1 mL per animal) was subcutaneously injected at the marked site once daily from day 0 to day 25. Compound A solutions at 0.1 mL/10 g of body weight were orally administered once daily (approximately 2 hours before the BLM injection) for 29 consecutive days from day 0 until the day before the end of evaluation (day 28).
On day 29, mice were euthanized by inhalation anesthesia with isoflurane, and whole blood and back skin samples were collected. The left lung was dissected, weighed, and immersed in RNAlater solution (Qiagen). The collected blood was separated into serum. The injection site of skin was excised, weighed (wet weight) and immersed in 0.5 mol/L acetic acid solution containing 0.3 mg/mL pepsin to solubilize collagen. The collagen content of the solubilized sample was explored using the QuickZyme Soluble Collagen Assay kit (QuickZyme Biosciences), and absorbance was determined by a microplate reader (VERSAmax, Molecular Devices, LLC). Serum levels of surfactant protein D (SP-D) were assayed using the Rat/Mouse SP-D kit YAMASA EIA (Yamasa Corporation), and absorbance was determined by a microplate reader (VERSAmax, Molecular Devices, LLC). Total RNA of lungs was isolated using RNeasy 96 Universal Tissue Kit (Qiagen) according to the manufacturer's instructions. Real-time PCR was performed using the One Step SYBR PrimeScript PLUS RT-PCR Kit (Takara Bio Inc.) and ABI PRISM 7900HT Real Time PCR System (Applied Biosystems). Takara perfect real time primer pairs (Takara Bio Inc.) were used to analyze the gene expression of chemokine Cc12 (also named as monocyte chemotactic protein-1 (Mcp-1, MA066003)), interleukin-6 (IL-6, MA039013), and hypoxanthine phosphoribosyltransferase (Hprt, MA031262). Quantification was performed using the comparative CT (cycle threshold) method employing Hprt as the housekeeping gene. A serum concentration of endothelin 1 (ET-1) was assayed using Quantikine Endothelin-1 (R & D systems) and the absorbance was measured by the microplate reader (VERSAmax, Molecular Devices, LLC).
Therefore, differences in body weight at each time point were analyzed between the PBS_vehicle and BLM_vehicle groups using Student's t test.

Where [4] appears, read: Compound A at 3 and 10 mg/kg orally once daily day 22-42, samples day 43.
Where [5] appears, read: Compound A at ≥0.3 mg/kg orally once daily day 0-28, measured day 29.
The mark [6] stands for this setting: Compound A at ≥0.3 mg/kg orally once daily day 0-28, measured day 29, relative to Hprt.

Consider `COC[C@H]1CN(C(=O)[C@]2(F)CN(C3CCCC3)C[C@H]2c2ccc(OC)cc2)C[C@@H]1c1ccc(C(F)(F)F)cc1N1CCC(C(=O)O)CC1` [Compound A, 1-{2-[(3S,4R)-1-{[(3R,4R)-1-cyclopentyl-3-fluoro-4-(4-methoxyphenyl)pyrrolidin-3-yl]carbonyl}-4-(methoxymethyl)pyrrolidin-3-yl]-5-(trifluoromethyl)phenyl}piperidine-4-carboxylic acid], for which, in test [1] (setting [4]), the “BLM-induced increase of skin thickness” value is on record as “significantly inhibited” and the “BLM-induced increase of αSMA-positive myofibroblasts in the dermis” value is “significantly inhibited”. For the same compound, the “BLM-induced loss of dermal white adipose tissue (Masson's trichrome staining)” value in test [1] (Compound A orally once daily day 22-42, samples day 43) was “inhibited”. In addition, the “progression of fibrosis after 3 weeks (versus group 2: BLM 3 weeks then saline 3 weeks)” value in test [1] (Compound A orally once daily during last 3 weeks of 6-week BLM) is given as “almost completely inhibited”. For the same compound, the “TGF-β-induced αSMA (ACTA2) mRNA elevation” value in test [2] (concentration-dependent, normalized to GAPDH) is given as “inhibited”. The “TGF-β-induced COL1A1 mRNA expression” value in test [2] (normalized to GAPDH) is on record as “no effect”. For the same compound, the “TGF-β-induced increase in αSMA mRNA expression” value in test [2] (concentration of 1000 nmol/L) is given as “suppressed”. Besides, in test [3] (setting [5]), the “BLM-induced increase of collagen content of the skin” value is given as “inhibited significantly”, the “BLM-induced increase of serum concentration of ET-1” value was “inhibited significantly”, the “BLM-induced increase of serum level of SP-D” value was “inhibited significantly” and the “BLM-induced increase of wet weight of the left lung” value is “inhibited significantly”. Besides, in test [3] (setting [6]), the “BLM-induced increase of IL-6 mRNA expression in the lung” value is listed as “inhibited significantly” and the “BLM-induced increase of Mcp-1 mRNA expression in the lung” value was “inhibited significantly”. Also, the “BLM-induced decrease of body weight” value in test [3] (Compound A at ≥0.3 mg/kg orally once daily, day 0 to day 29) is “significantly improved”.
